Laboratory results as given in the supplement of paper PMC9663587.

Tests used:
Assay in all cases: GR value, 72 h; higher = faster growth (1 = untreated, <0 = killing);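 note: breast cancer and non-malignant breast epithelial lines, nine half-log doses, viable cells counted by Hoechst and LIVE/DEAD dye imaging versus time-zero plates and DMSO controls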
[1] = compound: C1=CC2=C(C=CC(=C2)C=C3C(=O)NC(=NCC4=CC=CS4)S3)N=C1 [R0-3306]
[2] = compound: C=CCn1c(=O)c2cnc(Nc3ccc(N4CCN(C)CC4)cc3)nc2n1-c1cccc(C(C)(C)O)n1 [AZD1775]
[3] = compound: CC1=CN2C(=O)C=C(N=C2C(=C1)C(C)NC3=CC=CC=C3)N4CCOCC4 [TGX221]
[4] = compound: CC[C@@H]1C(=O)N(C)c2cnc(Nc3ccc(C(=O)N[C@H]4CC[C@H](N5CCN(CC6CC6)CC5)CC4)cc3OC)nc2N1C(C)C [Volasertib/BI6727]
[5] = compound: CN(C)CC[C@H](CSc1ccccc1)Nc1ccc(S(=O)(=O)NC(=O)c2ccc(N3CCN(Cc4ccccc4-c4ccc(Cl)cc4)CC3)cc2)cc1[N+](=O)[O-] [ABT-737]
[6] = compound: CN1CCN(C(=O)c2ccc3cc(CCNc4ncnc5ccc(C#N)cc45)ccc3c2)CC1 [senexin b]
[7] = compound: COc1ccc2c(c1)[C@]1(C[C@H]1c1ccc3c(/C=C/c4ccc(CN5C[C@@H](C)O[C@@H](C)C5)cc4)n[nH]c3c1)C(=O)N2
[8] = compound: Cc1cc(Nc2ncc(Cl)c(Nc3ccccc3S(=O)(=O)C(C)C)n2)c(OC(C)C)cc1C1CCNCC1 [Ceritinib/LDK378]
[9] = compound: Cc1nn(C)c(COc2ccc(N3CCN(S(=O)(=O)N(C)C)CC3)cc2)c1-c1cccc2c(CCCOc3cccc4ccccc34)c(C(=O)O)n(CCN3CCOCC3)c12
[10] = compound: NC(=O)Nc1cc(-c2cccc(F)c2)sc1C(=O)N[C@H]1CCCNC1 [AZD7762]
[11] = compound: O=C(CCCCCCC(=O)Nc1ccccc1)NO [Vorinostat]
[12] = compound: O=C1NC(=O)[C@@H](c2cn3c4c(cccc24)CCC3)[C@@H]1c1c[nH]c2ccccc12 [Tivantinib/ARQ197]

What does the source list for AU565?
GR value ([1]; 0.001 µM): 0.805 GR; GR value ([1]; 0.003162 µM): 0.756 GR; GR value ([1]; 0.01 µM): 0.522 GR; GR value ([1]; 0.03162 µM): 0.735 GR; GR value ([1]; 0.1 µM): 0.692 GR; GR value ([1]; 0.3162 µM): 0.711 GR; GR value ([1]; 1 µM): 0.548 GR; GR value ([1]; 3.162 µM): 0.375 GR; GR value ([1]; 10 µM): -0.214 GR; GR value ([2]; 0.001 µM): 0.879 GR; GR value ([2]; 0.003162 µM): 0.913 GR; GR value ([2]; 0.01 µM): 0.779 GR; GR value ([2]; 0.03162 µM): 0.585 GR; GR value ([2]; 0.1 µM): 0.612 GR; GR value ([2]; 0.3162 µM): 0.521 GR; GR value ([2]; 1 µM): 0.288 GR; GR value ([2]; 3.162 µM): 0.207 GR; GR value ([2]; 10 µM): -0.514 GR; GR value ([3]; 0.001 µM): 0.923 GR; GR value ([3]; 0.003162 µM): 0.912 GR; GR value ([3]; 0.01 µM): 0.868 GR; GR value ([3]; 0.03162 µM): 0.964 GR; GR value ([3]; 0.1 µM): 0.916 GR; GR value ([3]; 0.3162 µM): 0.889 GR; GR value ([3]; 1 µM): 0.919 GR; GR value ([3]; 3.162 µM): 0.852 GR; GR value ([3]; 10 µM): 0.58 GR; GR value ([4]; 0.0001 µM): 1.07 GR; GR value ([4]; 0.0003162 µM): 0.998 GR; GR value ([4]; 0.001 µM): 0.912 GR; GR value ([4]; 0.003162 µM): 0.756 GR; GR value ([4]; 0.01 µM): -0.409 GR; GR value ([4]; 0.03162 µM): -0.516 GR; GR value ([4]; 0.1 µM): -0.458 GR; GR value ([4]; 0.3162 µM): -0.455 GR; GR value ([4]; 1 µM): -0.206 GR; GR value ([5]; 0.001 µM): 0.926 GR; GR value ([5]; 0.003162 µM): 1.05 GR; GR value ([5]; 0.01 µM): 1.03 GR; GR value ([5]; 0.03162 µM): 1.04 GR; GR value ([5]; 0.1 µM): 1.04 GR; GR value ([5]; 0.3162 µM): 1.02 GR; GR value ([5]; 1 µM): 0.957 GR; GR value ([5]; 3.162 µM): 0.86 GR; GR value ([5]; 10 µM): 0.279 GR; GR value ([6]; 0.001 µM): 1.02 GR; GR value ([6]; 0.003162 µM): 0.919 GR; GR value ([6]; 0.01 µM): 0.88 GR; GR value ([6]; 0.03162 µM): 1.05 GR; GR value ([6]; 0.1 µM): 0.897 GR; GR value ([6]; 0.3162 µM): 0.904 GR; GR value ([6]; 1 µM): 0.786 GR; GR value ([6]; 3.162 µM): 0.768 GR; GR value ([6]; 10 µM): 0.913 GR; GR value ([7]; 0.0001 µM): 0.968 GR; GR value ([7]; 0.0003162 µM): 0.96 GR; GR value ([7]; 0.001 µM): 0.874 GR; GR value ([7]; 0.003162 µM): 0.602 GR; GR value ([7]; 0.01 µM): -0.128 GR; GR value ([7]; 0.03162 µM): -0.147 GR; GR value ([7]; 0.1 µM): -0.161 GR; GR value ([7]; 0.3162 µM): -0.168 GR; GR value ([7]; 1 µM): -0.109 GR; GR value ([8]; 0.001 µM): 1.01 GR; GR value ([8]; 0.003162 µM): 0.971 GR; GR value ([8]; 0.01 µM): 1 GR; GR value ([8]; 0.03162 µM): 1.01 GR; GR value ([8]; 0.1 µM): 0.983 GR; GR value ([8]; 0.3162 µM): 0.993 GR; GR value ([8]; 1 µM): 0.887 GR; GR value ([8]; 3.162 µM): 0.479 GR; GR value ([9]; 0.001 µM): 1.03 GR; GR value ([9]; 0.003162 µM): 1.04 GR; GR value ([9]; 0.01 µM): 1.09 GR; GR value ([9]; 0.03162 µM): 1.03 GR; GR value ([9]; 0.1 µM): 1.06 GR; GR value ([9]; 0.3162 µM): 1.05 GR; GR value ([9]; 1 µM): 1.03 GR; GR value ([9]; 3.162 µM): 1.05 GR; GR value ([9]; 10 µM): 0.613 GR; GR value ([10]; 0.001 µM): 1.01 GR; GR value ([10]; 0.003162 µM): 1.01 GR; GR value ([10]; 0.01 µM): 1.08 GR; GR value ([10]; 0.03162 µM): 1.03 GR; GR value ([10]; 0.1 µM): 0.976 GR; GR value ([10]; 0.3162 µM): 0.756 GR; GR value ([10]; 1 µM): 0.41 GR; GR value ([10]; 3.162 µM): -0.179 GR; GR value ([10]; 10 µM): -0.57 GR; GR value ([11]; 0.001 µM): 0.865 GR; GR value ([11]; 0.003162 µM): 0.936 GR; GR value ([11]; 0.01 µM): 1.02 GR; GR value ([11]; 0.03162 µM): 0.999 GR; GR value ([11]; 0.1 µM): 1.06 GR; GR value ([11]; 0.3162 µM): 0.941 GR; GR value ([11]; 1 µM): 0.551 GR; GR value ([11]; 3.162 µM): -0.345 GR; GR value ([11]; 10 µM): -0.448 GR; GR value ([12]; 0.001 µM): 1.08 GR; GR value ([12]; 0.003162 µM): 1.04 GR; GR value ([12]; 0.01 µM): 1.1 GR; GR value ([12]; 0.03162 µM): 1.03 GR; GR value ([12]; 0.1 µM): 0.841 GR; GR value ([12]; 0.3162 µM): 0.191 GR; GR value ([12]; 1 µM): -0.542 GR; GR value ([12]; 3.162 µM): -0.468 GR; GR value ([12]; 10 µM): -0.479 GR
